Values of other authors as cited in paper PMC12500691 (Frontiers in Cellular and Infection Microbiology, 2025).

Tested on: NETosis
Settings: cited from earlier work

In the case of `CC[C@H](C)[C@H](NC(=O)[C@H](CCCCN)NC(=O)[C@H](CCC(=O)O)NC(=O)[C@H](CCCCN)NC(=O)[C@H](CO)NC(=O)[C@H](CCCCN)NC(=O)[C@H](CCCNC(=N)N)NC(=O)[C@H](Cc1ccccc1)NC(=O)[C@H](Cc1ccccc1)NC(=O)[C@H](CC(=O)O)NC(=O)CNC(=O)[C@H](CC(C)C)NC(=O)[C@@H](N)CC(C)C)C(=O)NCC(=O)N[C@@H](CCCCN)C(=O)N[C@@H](CCC(=O)O)C(=O)N[C@@H](Cc1ccccc1)C(=O)N[C@@H](CCCCN)C(=O)N[C@@H](CCCNC(=N)N)C(=O)N[C@H](C(=O)N[C@H](C(=O)N[C@@H](CCC(N)=O)C(=O)N[C@@H](CCCNC(=N)N)C(=O)N[C@H](C(=O)N[C@@H](CCCCN)C(=O)N[C@@H](CC(=O)O)C(=O)N[C@@H](Cc1ccccc1)C(=O)N[C@@H](CC(C)C)C(=O)N[C@@H](CCCNC(=N)N)C(=O)N[C@@H](CC(N)=O)C(=O)N[C@@H](CC(C)C)C(=O)N[C@H](C(=O)N1CCC[C@H]1C(=O)N[C@@H](CCCNC(=N)N)C(=O)N[C@H](C(=O)N[C@@H](CCC(=O)O)C(=O)N[C@@H](CO)C(=O)O)[C@@H](C)O)C(C)C)[C@@H](C)CC)C(C)C)[C@@H](C)CC` [LL-37], the “effect on NETosis” value is given as “promote NETosis”.
